Results as given in patent US8425908B2, “Treatment with anti-ErbB2 antibodies” (Genentech, Inc., priority 1997, dated 2013).

Test system: ErbB2-overexpressing metastatic breast cancer
Assay: Randomized clinical study of chemotherapy with or without HERCEPTIN in patients with metastatic breast cancer
Type: in vivo, human
Excerpt: Eligibility Criteria Patients had to fulfill all of the following criteria to be eligible for study admission: • Metastatic breast cancer • Overexpression of the ErbB2 (HER2) oncogene (2+ to 3+ as determined by immunohistochemistry or fluorescence in situ hybridization (FISH). [Tumor expression of ErbB2 can be determined by immunohistochemical analysis, as previously described (Slamon et al., [1987] and [1989], supra), of a set of thin sections prepared from the patient's paraffin-archived tumor blocks. The primary detecting antibody used is murine 4D5 MAb, which has the same CDRs as the humanized antibody used for the treatment.
Measurable disease was defined as any mass reproducibly measurable in two perpendicular diameters by physical examination, X-ray (plain films), computerized tomography (CT), magnetic resonance imaging (MRI), ultrasound, or photographs.
Osteoblastic metastases, pleural effusions, or ascites were not considered to be measurable. Measurable lesions must be at least 1 cm in greatest dimension. Enumeration of evaluable sites of metastatic disease and number of lesions in an evaluable site (e.g. lung) had to be recorded on the appropriate Case Report Form (CRF). If a large number of pulmonary or hepatic lesions were present, the six largest lesions per site were followed. • The ability to understand and willingness to sign a written informed consent form • Women≧18 years • Suitable candidates for receiving concomitant cytotoxic chemotherapy as evidenced by screening laboratory assessments of hematologic, renal, hepatic, and metabolic functions.
Exclusion Criteria Patients with any of the following were excluded from study entry: • Prior cytotoxic chemotherapy for metastatic breast cancer Patients may have received prior hormonal therapy (e.g. tamoxifen) for metastatic disease or cytotoxic therapy in the adjuvant setting. • Concomitant malignancy that has not been curatively treated • A performance status of <60% on the Karnofsky scale • Pregnant or nursing women; women of childbearing potential, unless using effective contraception as determined by the investigator • Bilateral breast cancer (either both primary tumors must have 2+ to 3+ HER2 overexpression, or the metastatic site must have 2+ to 3+ HER2 overexpression) • Use of investigational or unlicensed agents within 30 days prior to study entry • Clinically unstable or untreated metastases to the brain (e.g. requiring radiation therapy)
Half the patients (stratified by chemotherapy) were randomized to additionally receive the HERCEPTIN® antibody (see below).
Beginning on day 7, patients received weekly administration of 2 mg/kg antibody (i.v.) over a 90-minute period. […]

[1] = median follow-up of 10.5 months

- syndrome of myocardial dysfunction, Grade 3/4: 0%
SMILES: CC(=O)O[C@H]1C(=O)[C@@]2(C)[C@H]([C@H](OC(=O)c3ccccc3)[C@]3(O)C[C@H](OC(=O)[C@H](O)[C@@H](NC(=O)c4ccccc4)c4ccccc4)C(C)=C1C3(C)C)[C@]1(OC(C)=O)CO[C@@H]1C[C@@H]2O [T, paclitaxel]
- AE (%), overall severe adverse events [1]: 59%
- RR (%), response rates [1]: 25.0%
- TTP (months), time to disease progression [1]: 4.2 months
